Consider 9 molecules from article PMC11741150, “Synthesis and In Vitro Antileishmanial Efficacy of Novel Ethylene Glycol Analogues of Benzothiadiazine‐1,1‐dioxide” (Chemistry & Biodiversity, 2024).

The subject of assay [1] is L. donovani strain 9515 intramacrophage amastigotes. The assay is described as follows: Intramacrophage antileishmanial growth inhibition assay. It is filed as cell-based. The following applies: Leishmania donovani, read-out: Anti‐amastigote growth inhibition (%). Here is the method:
(§1) A modified resazurin assay[47, 48] and the two Leishmania strains were also used to assess the efficacy of synthesised compounds against intramacrophage parasites.
(§2) Human monocytic leukemia (THP‐1) cells were cultured in RPMI 1640 medium with L‐glutamine (Sigma Aldrich) supplemented with, 1 % penicillin/streptomycin solution (Lonza), 10 % fetal bovine serum (FBS; Thermofisher Scientific) and 2 g/L sodium bicarbonate (Sigma Aldrich). The cells were maintained in a humidified environment at 37 °C and 5 % CO2.
(§3) For the intramacrophage assay, a 500 000 cells/mL THP‐1 cell suspension was prepared, 25 ng/mL phorbol 12‐myristate 13‐acetate (PMA) added and the suspension seeded in 96 well plates (Nunc, Thermofisher Scientific) at 200 μL/well. Cell‐free growth medium was included as the blank. The plates were incubated for 48 hours in a humidified environment at 37 °C and 5 % CO2 to encourage the differentiation of the suspended cells to adherent macrophages.
(§4) To eliminate non‐adherent cells after the PMA treatment, the plates were carefully washed once with warm PBS. Then, a premade promastigote suspension ([…]) was added. The suspension consisted of stationary phase promastigotes in THP‐1 cell growth medium, with a multiplicity of infection (MOI) of 30 : 1. Parasite‐free medium was also added to selected THP‐1 cell‐containing wells to serve as parasite blank. The plates were thoroughly rinsed four times with warm PBS to get rid of extracellular parasites after being cultured for 24 hours to encourage macrophage infection. The cells were then treated with 160 μL of growth medium and 40 μL of either solvent (parasite blank and negative control with parasites) or 40 μL of compound solutions. For a dual‐point activity screening, 10 μM and 2 mM of compound were prepared in separate plates. Amphothericin B (10 μM) served as the standard antileishmanial drug. The plates were incubated for 72 hours in a humidified environment at 37 °C and 5 % CO2.
(§5) For the plates treated with 10 μM of compound, any serum and extracellular promastigotes that remained were carefully removed from the wells by rinsing with warm PBS. The wells were then treated with 20 μL of 0.05 % sodium dodecyl sulphate (SDS; Sigma Aldrich) in PBS for 30 sec to lyse the macrophages. Lysis was terminated with the addition of 180 μL promastigote growth medium with 10 % FBS. For the resazurin assay, 10 μL of resazurin solution (0.025 % in PBS) was added to each well and the plates were further incubated at 37 °C in for 72 hours in the dark to measure amastigote recovery to proliferative promastigotes.
(§6) A Thermofisher Scientific's GO Multiscan plate reader was used to measure absorbance at 570 nm and 600 nm. SkanIt 4.0 Research Edition software was used to perform the data analysis for every biological replicate. Background absorbance (600 nm) was subtracted from the 570 nm absorbance data and the mean absorbance was computed.
(§7) For the activity screening, the following formula was used to determine growth inhibition percentage: Growthinhibition%=100-[(ΔAbssample-ΔAbsblank)/(ΔAbsnegcontrol-ΔAbsblank)X100]

Assay [2] deals with L. major intramacrophage amastigotes. The description is as above. The following applies: for inhibition at 10 µM: Leishmania major, L. major strain IR‐173 (as headed) intramacrophage amastigotes, read-out: Anti‐amastigote growth inhibition (%); for host cell and parasite death in L. major anti‐amastigote screening: 2 mM of compound, L. major only. It is filed as cell-based, Leishmania major. As to the method:
as §1, §2, §3, §4, §5
Any remaining extracellular promastigotes were afterwards carefully removed from the wells by rinsing with warm PBS. The wells were then treated with 50 μL of resazurin solution (0.01 % in PBS) and the plates were further incubated at 37 °C for 4 hours in the dark to assess host cell viability.
as §6, §7

Assay [3] concerns Leishmania donovani (strain 9515 (MHOM/IN/95/9515)) promastigotes. Briefly: Antipromastigote resazurin assay. The assay is classed as cell-based. The following applies: for IC50: promastigotes, maximum concentration 2 mM, ±standard deviation, read-out: L. donovani 9515 antipromastigote IC50; for inhibition at 10 µM: L. donovani strain 9515 promastigotes, read-out: Antipromastigote growth inhibition (%). Here is the method:
The antipromastigote activity of synthesised compounds was evaluated using a modified method of the resazurin assay[45, 46] against two Leishmania strains.
Leishmania donovani (strain 9515 (MHOM/IN/95/9515)) and L. major (strain NIH S (MHOM/SN/74/Seidman)) promastigotes were cultured in M199 with Hank's salts and 0.68 mM L‐glutamine (Sigma Aldrich) supplemented with 0.0005 % hemin, 0.0001 % biotin, 0.1 mM adenine (Sigma Aldrich), 10 % fetal bovine serum, 50 U/mL Penicillin/Streptomycin solution, 4.2 mM sodium bicarbonate and 25 mM Hepes buffer. The promastigotes were maintained at an adjusted pH of 7.3–7.4 growth medium at 26 °C. […] Amphothericin B (10 μM) served as the standard antileishmanial drug and parasite‐free growth medium was included as the blank. The plates were incubated for 48 hours at 26 °C in humidified environment.
Following the initial incubation, 50 μL of resazurin solution (0.01 % in PBS) was added to each well and the plates underwent further incubation at 26 °C for 24 hours in the dark. A Thermofisher Scientific's GO Multiscan plate reader was used to measure absorbance at 570 nm and 600 nm. SkanIt 4.0 Research Edition software was used to perform the data analysis for every biological replicate. Background absorbance (600 nm) was subtracted from the 570 nm absorbance data and the mean absorbance was computed. The cell viability and data analysis were performed as indicated in the cytotoxicity assay.

The subject of assay [4] is L. major (strain NIH S (MHOM/SN/74/Seidman)) promastigotes. The assay is described as follows: Antipromastigote resazurin assay. It is filed as cell-based, Leishmania major. The following applies: for inhibition at 10 µM: L. major strain IR‐173 (as headed) promastigotes, read-out: Antipromastigote growth inhibition (%); for IC50: promastigotes, maximum concentration 2 mM, ±standard deviation.

A further assay has as its system Vero cells. Briefly: Cytotoxicity resazurin assay. The assay is classed as cell-based. The following applies: Chlorocebus sabaeus, 48 hours, ±standard deviation, maximum concentration 2 mM. Here is the method:
The cytotoxicity of the synthesised compounds was evaluated using the resazurin assay. The assay involves live cells converting oxidized blue resazurin dye to pink, highly fluorescent resorufin through irreversible enzymatic reduction.[44] This non‐toxic reagent is a useful instrument for determining drug toxicity and cell growth.
Dulbecco's modified Eagle's medium (DMEM) with high glucose (Separations) supplemented with 1 % L‐glutamine, non‐essential amino acids, and penicillin‐streptomycin (Sigma Aldrich), and 10 % fetal bovine serum (Thermofisher Scientific) was used to cultivate Vero cells. The cells were kept at 37 °C and 5 % CO2 in a humidified environment. For the assay, 96 well plates were prepared by pipetting 100 μL of cell suspension (60 000 cells/mL) per well and incubating the plates for 24 hours. The cells were then treated with seven two‐fold concentration dilutions of: (1) 1 μM emetine dihydrochloride (Sigma Aldrich) solution (positive control); (2) 2 mM experimental compound solutions. Cell‐free growth medium was included as a blank. The treated plates were incubated for 48 hours.
To initiate the resazurin assay, 50 μL of sterile‐filtered resazurin sodium salt (Sigma Aldrich) solution (0.01 % in phosphate‐buffered saline (PBS)) was added to the prepared plates and then incubated for 2 hours. A Thermofisher Scientific's GO Multiscan plate reader was used to measure the absorbance at 570 and 600 nm. SkanIt 4.0 Research Edition software was used to perform the data analysis for every biological replicate. After subtracting background absorbance (600 nm) from the 570 nm absorbance data, the mean absorbance was computed, and the percentage of viable cells was estimated using the formula below: Cellviability%=(ΔAbssample-ΔAbsblank)/(ΔAbsnegcontrol-ΔAbsblank)X100
GraphPad Prism 5 was used to calculate the IC50 and Z‐score for each compound's biological replicate. The mean IC50 of the biological replicates and standard deviation (SD) was calculated to determine the final IC50 of each compound.
Background: Resazurin is reduced to fluorescent resorufin, in cell work by metabolically active cells.

Structures are written as SMILES. “Also recorded” adds a separate entry of the source. Read-outs that look alike come from different tables or passages of the source.

Regarding `C[C@@H]1[C@H](O)[C@@H](C)/C=C/C=C/C=C/C=C/C=C/C=C/C=C/[C@H](O[C@@H]2O[C@H](C)[C@@H](O)[C@H](N)[C@@H]2O)C[C@@H]2O[C@](O)(C[C@@H](O)C[C@@H](O)[C@H](O)CC[C@@H](O)C[C@@H](O)CC(=O)O[C@H]1C)C[C@H](O)[C@H]2C(=O)O` [AmB, Amphotericin B, reference compound], the inhibition at 10 µM in assay [1], in assay [2], in assay [3] (Leishmania donovani) and in assay [4] (Leishmania major) was 100% in each case. For the same molecule, the IC50 in assay [3] (Leishmania donovani) is 0.02 µM; in the assay on Vero cells it was 57.8 ± 3.22 µM.
Regarding `COCCN1C=Nc2ccccc2S1(=O)=O` [Compound 3, 2‐(2‐Methoxyethyl)‐2H‐benzo[e][1,2,4]thiadiazine‐1,1‐dioxide], the inhibition at 10 µM in assay [1] stood at 0%; in assay [2] it was 0%; in assay [3] (Leishmania donovani) it was 2%; in assay [4] (Leishmania major) it was 0%. Besides, the IC50 in assay [3] (Leishmania donovani) was found to be 482 ± 7.57 µM; in assay [4] (Leishmania major), 701 ± 40.8 µM; in the assay with Vero cells, 502 ± 152 µM.
For `COCCOCCN1C=Nc2ccccc2S1(=O)=O` [Compound 4, 2‐[2‐(2‐Methoxyethoxy)ethyl]‐2H‐benzo[e][1,2,4]thiadiazine‐1,1‐dioxide], the inhibition at 10 µM in assay [1], in assay [2], in assay [3] (Leishmania donovani) and in assay [4] (Leishmania major) was 0% in each case. The half-maximal inhibitory concentration (IC50) in assay [3] (Leishmania donovani) amounted to 701.6 ± 4.17 µM; in assay [4] (Leishmania major), 919 ± 22.3 µM; in the assay with Vero cells, 988 ± 10.6 µM.
Turning to `COCCOCCOCCN1C=Nc2ccccc2S1(=O)=O` [Compound 5, 2‐{2‐[2‐(2‐Methoxyethoxy)ethoxy]ethyl}‐2H‐benzo[e][1,2,4]thiadiazine‐1,1‐dioxide], the inhibition at 10 µM in assay [1] is 0%; in assay [2] it was 0%; in assay [3] (Leishmania donovani) it was 5%; in assay [4] (Leishmania major), 0%. Further, the “host cell and parasite death in L. major anti‐amastigote screening” value (shortened to “host cell and parasite death”) in assay [2] is “both host cell and parasite death”. Besides, in assay [3], the “SI1: Selectivity index=IC50 Vero/L. donovani 9515 antipromastigote IC50” value is 1.20. The values for the 50% inhibitory concentration (IC50) (in assay [3] (Leishmania donovani); with Vero cells) were 830 ± 10.5 µM and 999 ± 16.8 µM, respectively. The “SI2: Selectivity index=IC50 Vero/L. major antipromastigote IC50” value in assay [4] is 0.89.
On to `CCOCCN1C=Nc2ccccc2S1(=O)=O` [Compound 6, 2‐(2‐Ethoxyethyl)‐2H‐benzo[e][1,2,4]thiadiazine‐1,1‐dioxide], for which the inhibition at 10 µM is 0% in assay [1], 0% in assay [2], 2% in assay [3] (Leishmania donovani) and 0% in assay [4] (Leishmania major). Moreover, the 50% inhibitory concentration (IC50) amounted to 333 ± 45.1 µM in assay [3] (Leishmania donovani), 586 ± 47 µM in assay [4] (Leishmania major) and 470 ± 225 µM with Vero cells.
With `CCOCCOCCN1C=Nc2ccccc2S1(=O)=O` [Compound 7, 2‐[2‐(2‐Ethoxyethoxy)ethyl]‐2H‐benzo[e][1,2,4]thiadiazine‐1,1‐dioxide], the inhibition at 10 µM in assay [1], in assay [2], in assay [3] (Leishmania donovani) and in assay [4] (Leishmania major) was 0% in each case. For the same molecule, the “host cell and parasite death” value in assay [2] is “both host cell and parasite death; also recorded: killed both parasite and host cell”. For the same molecule, in assay [3], the “SI1: Selectivity index=IC50 Vero/L. donovani 9515 antipromastigote IC50” value is recorded as 1.71. The values for the IC50 (in assay [3] (Leishmania donovani); in assay [4] (Leishmania major); in the assay with Vero cells) were 426 ± 34.7 µM, 491 ± 28.6 µM and 727 ± 61.7 µM, respectively. Further, the “SI2: Selectivity index=IC50 Vero/L. major antipromastigote IC50” value in assay [4] came out at 1.48.
Take `CCOCCOCCOCCN1C=Nc2ccccc2S1(=O)=O` [Compound 8, 2‐{2‐[2‐(2‐Ethoxyethoxy)ethoxy]ethyl}‐2H‐benzo[e][1,2,4]thiadiazine‐1,1‐dioxide]: the inhibition at 10 µM in assay [1] is 0%; in assay [2], 0%; in assay [3] (Leishmania donovani), 3%; in assay [4] (Leishmania major) it was 0%. Moreover, the 50% inhibitory concentration (IC50) in assay [3] (Leishmania donovani) stood at 809 ± 20.2 µM; in assay [4] (Leishmania major), 909 ± 124 µM; in the assay with Vero cells, 922 ± 93.9 µM.
For `O=S1(=O)c2ccccc2N=CN1CCOc1ccccc1` [Compound 9, 2‐(2‐Phenoxyethyl)‐2H‐benzo[e][1,2,4]thiadiazine‐1,1‐dioxide], the inhibition at 10 µM in assay [1] was 0%; in assay [2] it was 0%; in assay [3] (Leishmania donovani) it was 7%; in assay [4] (Leishmania major), 58%. Besides, in assay [2], the “host cell and parasite death” value is “both host cell and parasite death; also recorded: killed both parasite and host cell”. For the same molecule, the “SI1: Selectivity index=IC50 Vero/L. donovani 9515 antipromastigote IC50” value in assay [3] came out at 6.36. For the same molecule, the IC50 in assay [3] (Leishmania donovani) came to 153 µM; in assay [3] it was 153 ± 7.92 µM; in assay [4] (Leishmania major), 103 µM; in assay [4] it was 104 ± 4.53 µM; in the assay with Vero cells, 975.3 ± 3.68 µM. Further, the “SI2: Selectivity index=IC50 Vero/L. major antipromastigote IC50” value in assay [4] is reported as 9.41.
With `CC[C@H]1CN2CCc3cc(OC)c(OC)cc3[C@@H]2C[C@@H]1C[C@H]1NCCc2cc(OC)c(OC)cc21` [Em, emetine, reference compound], the IC50 in the assay with Vero cells stood at 0.08 ± 0.01 µM.

The inhibition is how much of the control response was suppressed. For orientation: IC50 means the point on the concentration scale where inhibition reaches its midpoint.
